The text below walks through data of patent US20120225848A1, “Antagonists of GABA-B Receptors to Enhance Neuronal Function, Learning and Memory” (priority 2009, published 2012).

The subject of one data set is mRNAs for NGF and BDNF. To be noted: Heese et al., 2000; cited from earlier work.
Data set [1] relates to dentate gyrus (DG) of hippocampal slices. In kind it is cell-based, mouse. To be noted: 1 μM.
Data set [2] has the same test system. Kind of data set: LTP of evoked field potentials in dentate gyrus of hippocampal slices. Type of data set: cell-based, mouse.
The test system is the same in data set [3]. Kind of data set: Paired-pulse depression of the population spike (feedback inhibition) in DG. Type of data set: cell-based, mouse. To be noted: 1 μM, interstimulus interval 30 ms. The procedure: Recording of evoked field potentials. A slice was transferred into the recording submerged chamber and superfused with ACSF at a constant rate of 2.5 ml/min at 32° C. Recording electrodes were made of borosilicate glass capillaries (1B150F, World Precision Instruments, Sarasota, Fla.) and were filled with 2M NaCl (resistance 0.3-0.5 MΩ). Monopolar stimulating electrodes were maid of Pt/Ir wires with diameter 25.4 μm (PTT0110, World Precision Instruments, Sarasota, Fla.) and had 100-μm-long exposed tips. […]
The amplitude of the population spike was measured as follows: 1) a line was drawn at the base of the population spike connecting the first and second peaks of the field response; 2) a second line was drawn at the peak of the population spike (i.e. at the peak of the downward deflection); 3) at the peak of the spike, a line was drawn vertically between these two lines to give the amplitude of the population spike. The magnitude of the field excitatory postsynaptic potential (fEPSP) was measured as the initial slope of the linear part of the fEPSP (latencies 0.1-0.9 ms). […]
Effects of GABAB antagonists on pro-epileptic properties in Ts65Dn DG. […] We evaluated the effect of GABAB antagonists on feedback inhibition by measuring paired-pulse depression of the population spike amplitude (PS2/PS1). […]

For a further data set, the target named is GABAB receptor (Homo sapiens, UniProt Q9UBS5). To be noted: 1 μM; baclofen 5-10 μM; cited from earlier work.
GABAB receptor, sequence (Q9UBS5 20-961): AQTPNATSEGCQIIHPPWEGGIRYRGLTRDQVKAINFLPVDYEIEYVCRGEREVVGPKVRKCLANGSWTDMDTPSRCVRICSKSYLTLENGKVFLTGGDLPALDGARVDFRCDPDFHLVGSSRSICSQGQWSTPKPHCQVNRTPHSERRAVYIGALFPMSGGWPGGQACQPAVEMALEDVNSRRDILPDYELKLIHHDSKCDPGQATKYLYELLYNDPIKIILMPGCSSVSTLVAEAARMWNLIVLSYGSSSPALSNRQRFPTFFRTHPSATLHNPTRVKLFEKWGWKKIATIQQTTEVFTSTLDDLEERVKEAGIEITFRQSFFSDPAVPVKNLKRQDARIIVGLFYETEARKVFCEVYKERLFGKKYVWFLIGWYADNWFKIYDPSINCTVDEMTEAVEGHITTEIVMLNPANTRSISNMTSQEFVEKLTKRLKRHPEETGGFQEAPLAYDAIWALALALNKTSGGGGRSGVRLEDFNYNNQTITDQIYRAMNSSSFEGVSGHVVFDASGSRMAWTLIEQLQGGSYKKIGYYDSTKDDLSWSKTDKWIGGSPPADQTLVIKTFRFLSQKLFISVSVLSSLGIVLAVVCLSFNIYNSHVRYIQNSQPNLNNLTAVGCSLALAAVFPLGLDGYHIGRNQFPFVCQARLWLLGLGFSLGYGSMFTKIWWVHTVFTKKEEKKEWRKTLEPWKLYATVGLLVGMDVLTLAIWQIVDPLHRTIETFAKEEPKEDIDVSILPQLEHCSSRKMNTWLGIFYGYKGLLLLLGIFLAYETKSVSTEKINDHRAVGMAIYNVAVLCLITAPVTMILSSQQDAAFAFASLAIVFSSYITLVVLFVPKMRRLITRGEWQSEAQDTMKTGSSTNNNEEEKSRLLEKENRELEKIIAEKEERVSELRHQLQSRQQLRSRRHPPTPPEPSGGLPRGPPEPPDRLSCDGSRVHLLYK
GABAB receptor, sequence (O75899 42-941 partner): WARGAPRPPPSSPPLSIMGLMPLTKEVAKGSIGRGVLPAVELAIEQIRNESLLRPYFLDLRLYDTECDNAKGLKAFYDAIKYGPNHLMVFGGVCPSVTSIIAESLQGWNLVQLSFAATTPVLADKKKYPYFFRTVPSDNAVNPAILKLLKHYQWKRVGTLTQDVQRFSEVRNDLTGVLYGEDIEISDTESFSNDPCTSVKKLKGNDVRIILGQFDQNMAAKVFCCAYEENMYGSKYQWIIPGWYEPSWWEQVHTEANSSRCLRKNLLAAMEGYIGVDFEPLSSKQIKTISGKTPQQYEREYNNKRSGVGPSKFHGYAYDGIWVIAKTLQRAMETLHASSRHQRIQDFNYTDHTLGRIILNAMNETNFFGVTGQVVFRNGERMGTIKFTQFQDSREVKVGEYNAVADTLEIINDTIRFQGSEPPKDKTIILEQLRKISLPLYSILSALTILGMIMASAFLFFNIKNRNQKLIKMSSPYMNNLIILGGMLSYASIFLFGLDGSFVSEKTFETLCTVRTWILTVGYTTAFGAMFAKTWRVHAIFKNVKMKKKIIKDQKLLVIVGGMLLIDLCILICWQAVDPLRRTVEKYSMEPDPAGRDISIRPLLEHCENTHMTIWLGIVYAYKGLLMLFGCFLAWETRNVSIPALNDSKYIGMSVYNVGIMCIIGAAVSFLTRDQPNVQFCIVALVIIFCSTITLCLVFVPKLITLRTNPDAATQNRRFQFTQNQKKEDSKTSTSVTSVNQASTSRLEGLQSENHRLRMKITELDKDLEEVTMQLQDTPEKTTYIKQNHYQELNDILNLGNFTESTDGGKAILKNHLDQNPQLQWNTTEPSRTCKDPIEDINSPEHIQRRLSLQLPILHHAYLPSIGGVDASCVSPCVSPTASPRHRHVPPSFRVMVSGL
Data set [4] concerns the target T1, Kir3.2-containing potassium channels (Homo sapiens, UniProt P48051).
T1 sequence (P48051 1-423): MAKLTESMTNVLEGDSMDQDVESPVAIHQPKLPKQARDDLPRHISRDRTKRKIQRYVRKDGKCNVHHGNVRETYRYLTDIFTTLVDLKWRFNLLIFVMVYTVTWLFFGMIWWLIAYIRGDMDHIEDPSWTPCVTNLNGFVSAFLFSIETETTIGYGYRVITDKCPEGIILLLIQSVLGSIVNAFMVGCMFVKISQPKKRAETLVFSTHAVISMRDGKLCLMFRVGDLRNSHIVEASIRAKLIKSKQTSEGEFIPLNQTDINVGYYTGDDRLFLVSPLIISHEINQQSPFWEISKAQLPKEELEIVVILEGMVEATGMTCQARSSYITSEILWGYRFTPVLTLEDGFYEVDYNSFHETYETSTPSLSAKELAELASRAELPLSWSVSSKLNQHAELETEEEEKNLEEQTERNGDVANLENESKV
To be noted: Kobayashi et al., 2004; read-out: IC50 for block of Kir3.2 channels; cited from earlier work.

Data set [5] deals with postsynaptic GABAB receptors (Homo sapiens, UniProt Q9UBS5). The settings on record: Pozza et al., 1999; read-out: IC50 for postsynaptic receptors in hippocampal slices; cited from earlier work.
postsynaptic GABAB receptors, sequence (Q9UBS5 20-961): as the sequence (Q9UBS5 20-961) above
postsynaptic GABAB receptors, sequence (O75899 42-941 partner): as the sequence (O75899 42-941 partner) above
Data set [6] relates to 2N and Ts65Dn mice. Kind of data set: Open field activity. In kind it is in vivo, mouse. To be noted: 0.5 mg/kg i.p. daily, acute (1 week) and chronic (3 weeks). The procedure: Behavioral testing. All mice were exposed to the same series of behavioral tests starting at 2-2.5 months of age. Each mouse was handled for 10 min, twice a day, during the 7 days that preceded testing and for 3 days in between tests. Tests for spontaneous locomotor activity and open field were performed before the drug, during the acute (1 week), and during the chronic (3 weeks) phases of the drug administration. Novel object recognition task with a 24 hours delay was performed during the chronic phase (3 weeks) of the drug administration. All behavioral testing took place during the light cycle between 7:00 a.m. and 7:00 p.m. and was performed at room temperature (22° C.). […] Body weight was measured weekly. […]
Open field activity. Open field activity was recorded with a video camera in the arena of white squared box (76×76×50 cm) and analyzed with an automated videotracking system EthoVision Pro 3.1 (Noldus Information Technology, Wageningen, The Netherlands). Mice were placed in the center of the open field arena under dim ambient light conditions and activity was monitored for 10 min in a single trial. […] Results were averaged for total distance traveled, number of entries and the time spent in the pre-determined areas (the center of the arena, the periphery, i.e. area extending 12 cm from the center, and the border, which included the four corners).

For data set [7], the system named is 2N and Ts65Dn mice. Kind of data set: Spontaneous locomotor activity in activity box. In kind it is in vivo, mouse. To be noted: 0.5 mg/kg i.p. daily, acute (1 week) and chronic (3 weeks). Here is the method:
Behavioral testing. All mice were exposed to the same series of behavioral tests starting at 2-2.5 months of age. Each mouse was handled for 10 min, twice a day, during the 7 days that preceded testing and for 3 days in between tests. Tests for spontaneous locomotor activity and open field were performed before the drug, during the acute (1 week), and during the chronic (3 weeks) phases of the drug administration. Novel object recognition task with a 24 hours delay was performed during the chronic phase (3 weeks) of the drug administration. All behavioral testing took place during the light cycle between 7:00 a.m. and 7:00 p.m. and was performed at room temperature (22° C.). On the day of testing, the mice were left in their home cages in the experimental room for 2 hours for habituation. To minimize olfactory cues from the previous trial, each apparatus was thoroughly cleaned with 10% ethanol after each animal. CGP55845 (0.5 mg/kg) or equivalent volume of saline was injected intraperitoneally once a day during 3 weeks. Body weight was measured weekly. […]
Spontaneous locomotor activity. Spontaneous locomotor activity was monitored using square Plexiglas activity chambers (43.2×43.2×20 cm) and activity monitor software (Med Associates Activity Monitor, version 5.93.773). […] Distance moved, velocity, resting time, and times spent in pre-defined areas of the arena were recorded. […]

The target in data set [8] is presynaptic GABAB receptors. The settings on record: Pozza et al., 1999; read-out: IC50 for presynaptic receptors in hippocampal slices; cited from earlier work.
presynaptic GABAB receptors, sequence (Q9UBS5 20-961): as the sequence (Q9UBS5 20-961) above
presynaptic GABAB receptors, sequence (O75899 42-941 partner): as the sequence (O75899 42-941 partner) above
Data set [9] relates to 2N and Ts65Dn mice. Kind of data set: Novel object recognition with 24 h delay. Type of data set: in vivo, mouse. The settings on record: 0.5 mg/kg i.p. daily, 3 weeks. The procedure: (§1) Behavioral testing. All mice were exposed to the same series of behavioral tests starting at 2-2.5 months of age. Each mouse was handled for 10 min, twice a day, during the 7 days that preceded testing and for 3 days in between tests. Tests for spontaneous locomotor activity and open field were performed before the drug, during the acute (1 week), and during the chronic (3 weeks) phases of the drug administration. Novel object recognition task with a 24 hours delay was performed during the chronic phase (3 weeks) of the drug administration. All behavioral testing took place during the light cycle between 7:00 a.m. and 7:00 p.m. and was performed at room temperature (22° C.). On the day of testing, the mice were left in their home cages in the experimental room for 2 hours for habituation. To minimize olfactory cues from the previous trial, each apparatus was thoroughly cleaned with 10% ethanol after each animal. CGP55845 (0.5 mg/kg) or equivalent volume of saline was injected intraperitoneally once a day during 3 weeks. Body weight was measured weekly. The body weight was lower in Ts65Dn than in 2N mice, and it was not affected by the treatment (Supplementary FIG. S6). All behavioral tests and procedures were performed by operators who were blind to the genotypes and drug treatment.
Novel object recognition. The Bevins and Besheer protocol (Bevins and Besheer, 2006) for two sample objects with one environment was used to study learning and memory with 24 hours delays in 2N and Ts65Dn mice. Before testing, mice were habituated in a black Plexiglas chamber (31×24×27 cm) during 10 min for 2 consecutive days under dim ambient light conditions. Activity of mice during the object recognition task was recorded with a video camera. Two objects (A and B) consistent with height and volume, but different in shape and appearance were used in this test. […] The amount of time spent exploring each object (nose sniffing and head orientation within <1.0 cm) was recorded and evaluated by an operator, who was blind to both the phenotype and the treatment. […]

The test system of data set [10] is dentate gyrus (DG) of hippocampal slices. Kind of data set: Spontaneous ictal bursts in high-potassium model of epilepsy in hippocampal slices. Type of data set: cell-based, mouse. The settings on record: 1 μM, extracellular potassium 7.5 mM. From the text:
To evaluate more directly the potential effects of GABAB antagonists on epileptic properties of DG neural circuits, we examined spontaneous ictal bursts in hippocampal slices provoked by an increase in extracellular potassium. […] These changes were greater in Ts65Dn than in 2N slices (p<0.05). […] While the mechanism of the effect is yet to be refined, reduced electrochemical potential for potassium ions and the enhancement of feedback inhibition may both play a role.

Data set [11] can be described thus: Body weight during treatment. To be noted: 0.5 mg/kg i.p. once a day during 3 weeks; 2N and Ts65Dn mice. Type of data set: in vivo, mouse. Here is the method: as §1
Another data set deals with Ts65Dn hippocampal LTP. To be noted: in vitro system; Kleschevnikov 2004; cited from earlier work.

Turning to `CCCCP(=O)(O)CCCN` [CGP36742], the “levels of mRNAs for NGF and BDNF” value in the data set on mRNAs for NGF and BDNF is “increased”.
In the case of `CCOC(OCC)P(=O)(O)CCCNCc1ccc(Cl)c(Cl)c1` [CGP52432], in data set [1], the “NMDA receptor-mediated component of the tetanus-evoked field responses” value is “enhanced the NMDA receptor-mediated responses”, the “NMDA receptor-mediated component of the tetanus-evoked responses” value is “restored to 2N levels” and the tetanus-evoked field responses entry is on record as “significantly increased”. In addition, the “effect on LTP” value in data set [2] (1.0 μM, Ts65Dn slices) is reported as “enhanced LTP in the Ts65Dn DG”. Further, the PS2/PS1 ratio in [3] (2N slices, baseline 1.09±0.18) was found to be 0.93±0.25. In addition, the PS2/PS1 ratio in data set [3] (Ts65Dn slices, baseline 0.71±0.16) is on record as 0.59±0.17.
With `C[C@H](NC[C@H](O)CP(=O)(O)Cc1ccccc1)c1ccc(Cl)c(Cl)c1.Cl` [CGP 55845A], the “baclofen-induced postsynaptic hyperpolarization and depression of evoked IPSPs and EPSPs” value at GABAB receptor is on record as “blocks”.
For orientation: IC50 means the concentration at which inhibition is half-maximal. In the case of `CNCCC(Oc1ccc(C(F)(F)F)cc1)c1ccccc1` (stereo not drawn) [fluoxetine], the “effect on LTP” value in data set [2] (10 μM, Ts65Dn DG) is “enhanced LTP in the Ts65Dn DG”. Besides, in data set [4], the IC50 was approximately 10 µM.
On to CGP55845, for which the IC50 is 110 nM in data set [5] and 740 nM in data set [8]. For the same compound, the “open field parameters (velocity, distance, time in regions)” value with 2N and Ts65Dn mice [6] is reported as “no significant effect”. The spontaneous locomotor activity result in the data set with 2N and Ts65Dn mice [7] was “did not affect”. Further, the “effect on LTP” value in [2] (0.1 μM, Ts65Dn slices) was “enhanced LTP in Ts65Dn”; in data set [2] (1.0 μM, 2N slices) it was “enhanced LTP in both Ts65Dn and 2N slices”; in [2] (1.0 μM, Ts65Dn slices) it was “enhanced LTP in both Ts65Dn and 2N slices”. In the data set on 2N and Ts65Dn mice [9] (2N and Ts65Dn mice), the “exploration habits (total time of exploration of objects)” value is recorded as “no effect”. Moreover, the “improvement of memory in novel object recognition” value in the data set with 2N and Ts65Dn mice [9] (2N mice) is “observed only in Ts65Dn mice”. The discrimination index entry in the data set on 2N and Ts65Dn mice [9] (Ts65Dn mice vs Ts65Dn vehicle control, p<0.05) is listed as “significantly higher”. Moreover, in data set [10] (2N and Ts65Dn DG, p=0.8), the “frequency of spontaneous ictal bursts” value is on record as “did not affect”. For the same compound, in [10] (change greater in Ts65Dn than 2N, p<0.01), the “amplitude of burst-associated field potentials” value is “significantly reduced”. Also, the body weight entry in data set [11] was “not affected”.
Regarding picrotoxin, in the data set on Ts65Dn hippocampal LTP, the “deficits in Ts65Dn hippocampal LTP” value is “reverse”.
